Results published in publication PMC4252478 (Biochemical pharmacology, 2014).
Numbering of substitutions follows the chain as printed.

Key:
hPXR mutants = type: cell-based, human; conditions: 21 alanine mutants, various MET concentrations, HepG2
hPXR [1] = molecular target: T1, hPXR (Homo sapiens, UniProt O75469); conditions: HEK293T cells, 24 h; for PXR activation in the screen: 28 μM
T1 sequence (O75469 1-434): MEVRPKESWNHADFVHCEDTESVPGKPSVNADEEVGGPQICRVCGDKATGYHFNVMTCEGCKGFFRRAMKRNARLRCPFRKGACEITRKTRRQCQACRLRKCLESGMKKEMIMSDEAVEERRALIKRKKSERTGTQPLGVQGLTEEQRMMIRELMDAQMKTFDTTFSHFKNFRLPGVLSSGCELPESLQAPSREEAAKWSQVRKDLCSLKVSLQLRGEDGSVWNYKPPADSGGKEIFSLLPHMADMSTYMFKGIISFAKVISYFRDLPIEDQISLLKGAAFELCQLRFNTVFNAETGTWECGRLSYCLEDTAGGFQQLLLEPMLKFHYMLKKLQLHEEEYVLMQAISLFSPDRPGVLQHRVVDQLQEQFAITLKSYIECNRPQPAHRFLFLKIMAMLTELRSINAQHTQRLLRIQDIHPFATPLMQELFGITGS

[2] = tested on: human carbonic anhydrase isoforms I and III; conditions: ref [31]; cited from earlier work
wild-type hPXR = molecular target: T2, wild-type hPXR (Homo sapiens, UniProt O75469); assay: CYP3A4 promoter luciferase reporter assay in HepG2 cells, wild-type hPXR; type: cell-based; conditions: HepG2, 24 h, relative luciferase units (a.u.), DMSO 0.40
T2 sequence (O75469 1-434): T1 sequence (O75469 1-434)

[3] = molecular target: T3, wild-type hPXR (CYP3A4 promoter) (Homo sapiens, UniProt O75469); assay: as above; type: cell-based; conditions: human
T3 sequence (O75469 1-434): T1 sequence (O75469 1-434)

[4] = tested on: CYP3A4 and MDR1 expression; assay: CYP3A4 and MDR1 expression in LS180 and LS174T intestine cells; type: cell-based, human; conditions: Western blot
[5] = tested on: human carbonic anhydrase isoforms VII, XII, and XIII; conditions: ref [31]; cited from earlier work
[6] = molecular target: T4, hPXR ligand-binding domain (Homo sapiens, UniProt O75469); assay: LanthaScreen TR-FRET PXR competitive ligand-binding assay; conditions: 1.75 μM, compared with vehicle control
T4 sequence (O75469 146-433 limits assumed): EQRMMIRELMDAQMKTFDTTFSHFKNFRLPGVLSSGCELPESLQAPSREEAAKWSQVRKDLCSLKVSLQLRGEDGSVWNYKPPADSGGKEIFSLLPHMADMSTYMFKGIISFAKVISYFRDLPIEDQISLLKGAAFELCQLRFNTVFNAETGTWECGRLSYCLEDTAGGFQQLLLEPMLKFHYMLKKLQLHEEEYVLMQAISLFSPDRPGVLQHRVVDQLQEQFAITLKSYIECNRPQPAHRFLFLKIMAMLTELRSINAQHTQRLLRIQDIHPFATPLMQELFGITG

[7] = molecular target: hPXR and SRC-1 interaction (Homo sapiens, UniProt O75469); assay: Mammalian two-hybrid assay in HepG2 cells; type: cell-based; conditions: 24 h, 5 μM rifampicin, 5, 10 or 20 μM MET
hPXR [8] = molecular target: T1, hPXR; assay: CYP3A4 promoter luciferase reporter assay in HepG2 cells; conditions: HepG2, LS180 and LS174T cells, 24 h
[9] = tested on: CYP3A4 and MDR1 expression; assay: CYP3A4 and MDR1 expression in human primary hepatocytes; type: cell-based; conditions: 48-h treatment, two donors
[10] = molecular target: T5, hPXR R410A mutant (CYP3A4 promoter) (Homo sapiens, UniProt O75469, R410A); assay: CYP3A4 promoter luciferase reporter assay in HepG2 cells, hPXR mutant R410A; type: cell-based; conditions: human
T5 sequence (O75469 1-434 R410A): T1 sequence (O75469 1-434) with R410A

hPXR R410A = molecular target: T6, hPXR R410A (Homo sapiens, UniProt O75469, R410A); assay: as above; type: cell-based; conditions: HepG2, 24 h, relative luciferase units (a.u.), DMSO 3.28
T6 sequence (O75469 1-434 R410A): T1 sequence (O75469 1-434) with R410A

[11] = tested on: HepG2, LS180, and LS174T cells; assay: Cell viability assay; type: cell-based, human; conditions: 1.7 nM to 56 μM

hPXR and SRC-1 interaction, sequence (Q15788 whole entry partner, one chain of several): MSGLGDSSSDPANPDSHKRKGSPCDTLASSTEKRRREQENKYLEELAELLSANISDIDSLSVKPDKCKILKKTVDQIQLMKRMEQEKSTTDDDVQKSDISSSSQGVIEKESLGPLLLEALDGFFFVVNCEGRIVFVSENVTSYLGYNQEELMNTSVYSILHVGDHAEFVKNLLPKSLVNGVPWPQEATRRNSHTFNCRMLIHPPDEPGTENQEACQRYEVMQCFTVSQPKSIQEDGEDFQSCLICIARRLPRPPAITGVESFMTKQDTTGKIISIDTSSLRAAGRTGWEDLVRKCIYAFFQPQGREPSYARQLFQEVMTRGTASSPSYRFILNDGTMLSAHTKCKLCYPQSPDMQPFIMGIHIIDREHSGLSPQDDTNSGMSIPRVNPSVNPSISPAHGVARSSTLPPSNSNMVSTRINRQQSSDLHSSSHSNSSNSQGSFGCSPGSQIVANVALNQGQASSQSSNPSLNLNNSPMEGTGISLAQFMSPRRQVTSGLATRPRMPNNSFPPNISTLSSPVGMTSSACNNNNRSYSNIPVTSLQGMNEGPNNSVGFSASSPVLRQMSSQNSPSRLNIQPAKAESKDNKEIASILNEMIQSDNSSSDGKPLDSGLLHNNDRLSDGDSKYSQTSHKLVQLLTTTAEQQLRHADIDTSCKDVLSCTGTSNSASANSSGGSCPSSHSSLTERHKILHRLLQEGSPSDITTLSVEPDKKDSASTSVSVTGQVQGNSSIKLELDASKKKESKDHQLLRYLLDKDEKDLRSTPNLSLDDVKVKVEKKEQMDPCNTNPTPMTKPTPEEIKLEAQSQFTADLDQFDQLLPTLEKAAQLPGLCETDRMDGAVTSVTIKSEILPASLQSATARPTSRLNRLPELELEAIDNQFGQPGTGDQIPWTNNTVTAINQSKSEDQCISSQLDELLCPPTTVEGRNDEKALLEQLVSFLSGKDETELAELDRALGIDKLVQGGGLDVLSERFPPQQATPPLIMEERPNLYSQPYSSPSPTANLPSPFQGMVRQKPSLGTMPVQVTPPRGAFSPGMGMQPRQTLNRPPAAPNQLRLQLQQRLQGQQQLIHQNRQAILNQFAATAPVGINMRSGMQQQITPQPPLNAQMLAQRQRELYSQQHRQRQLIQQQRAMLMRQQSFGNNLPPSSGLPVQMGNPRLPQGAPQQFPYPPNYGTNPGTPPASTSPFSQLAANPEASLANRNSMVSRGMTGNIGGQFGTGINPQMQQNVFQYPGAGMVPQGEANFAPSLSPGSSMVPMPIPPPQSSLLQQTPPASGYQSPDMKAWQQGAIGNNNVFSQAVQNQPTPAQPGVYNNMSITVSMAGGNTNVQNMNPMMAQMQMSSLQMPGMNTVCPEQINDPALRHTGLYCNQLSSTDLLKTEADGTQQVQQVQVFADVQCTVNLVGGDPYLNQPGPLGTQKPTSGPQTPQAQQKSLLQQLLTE

## Cc1ccccc1N1C(=O)c2cc(S(N)(=O)=O)c(Cl)cc2NC1C (centres unmarked) [Metolazone]
hPXR mutants
  CYP3A4 promoter activity with hPXR mutants: increased CYP3A4 promoter activity substantially for all PXR mutants except L240A, F281A, and F420A
hPXR [1]; final compound concentration 28 μM, DMSO set as 0% and rifampicin at 5 μM set as 100%
  activation of the CYP3A4-luc reporter: 182%
[2]
  inhibition of carbonic anhydrase: weak inhibitor
wild-type hPXR; 10 μM MET
  CYP3A4 promoter activity: 3.93
wild-type hPXR; 20 μM MET
  CYP3A4 promoter activity: 4.22
[3]
  fold induction at 24 h, 10 μM: 9.83
  fold induction at 24 h, 20 μM: 10.6
[4]
  CYP3A4 and MDR1 protein expression: induced CYP3A4 and MDR1 protein expression
[5]
  inhibition of carbonic anhydrase: very potent
[6]
  tracer binding to hPXR-LBD: decreased tracer binding to hPXR-LBD substantially
[7]
  interaction between hPXR and SRC-1: substantially increased the interaction between hPXR and SRC-1
hPXR [8]
  activation of PXR-regulated CYP3A4 promoter activity: activator of PXR activity
[9]
  expression of CYP3A4 and MDR1 mRNA and protein: induced the expression of CYP3A4 and MDR1 mRNA and protein
[10]
  fold induction at 24 h, 10 μM: 1.96
  fold induction at 24 h, 20 μM: 1.5
hPXR R410A; 10 μM MET
  CYP3A4 promoter activity: 6.43
hPXR R410A; 20 μM MET
  CYP3A4 promoter activity: 4.92
[11]
  cytotoxicity: not significantly cytotoxic even at high concentration

## NS(=O)(=O)c1cc2c(cc1C(F)(F)F)NC(Cc1ccccc1)NS2(=O)=O (centres unmarked) [bendroflumethiazide]
hPXR [8]
  activation of PXR-regulated CYP3A4 promoter activity: inactive

## NS(=O)(=O)c1cc2c(cc1Cl)N=C(CSCc1ccccc1)NS2(=O)=O [benzthiazide]
hPXR [8]
  activation of PXR-regulated CYP3A4 promoter activity: inactive

## NS(=O)(=O)c1cc2c(cc1Cl)NC(C1CC3C=CC1C3)NS2(=O)=O (centres unmarked) [cyclothiazide]
hPXR [8]
  activation of PXR-regulated CYP3A4 promoter activity: does not activate PXR

## O=C1Nc2ccc(Cl)cc2[C@@](C#CC2CC2)(C(F)(F)F)O1 [efavirenz]
hPXR [1]
  PXR activation in the screen: PXR activation

## NS(=O)(=O)c1cc2c(cc1Cl)NCNS2(=O)=O [hydrochlorothiazide]
hPXR [8]
  activation of PXR-regulated CYP3A4 promoter activity: inactive

## CC(C)(O)c1ccccc1CC[C@@H](SCC1(CC(=O)O)CC1)c1cccc(/C=C/c2ccc3ccc(Cl)cc3n2)c1 [montelukast]
hPXR [1]
  PXR activation in the screen: PXR activation

## CCCCC1C(=O)N(c2ccccc2)N(c2ccccc2)C1=O [phenylbutazone]
hPXR [1]
  PXR activation in the screen: PXR activation

## Cc1cccc(C)c1NC(=O)c1cc(S(N)(=O)=O)c(Cl)cc1O [xipamide]
hPXR [8]
  activation of PXR-regulated CYP3A4 promoter activity: does not possess PXR-activating activity
